# Data: patent US6887827B2, “Combinations of herbicidal aromatic carboxylic acids and safeners” (Bayer CropScience GmbH, priority 2002, dated 2005)
# Test system: Triticum aestivum (wheat)
# Experiment: Post-emergence crop plant selectivity field trial: visually scored damage to wheat
# Assay type: in vivo
# Conditions: wheat at 3-tiller growth stage, 39 days after treatment, average of three trials
# Description: 1. Post-Emergence Effect on Weeds and Crop Plant Selectivity (Field Trials) Crop plants were grown outdoors on plots under natural outdoor conditions, and seeds or rhizome pieces of typical harmful plants were laid out or the natural weed growth was utilized. Treatment with the compositions according to the invention was carried out after the harmful plants had emerged and the crop plants were at the growth stage stated below. After the application, the effect of the composition was scored visually by comparison with untreated controls.
Structure (SMILES),Phytotox (%) on TRZAS (50 g ai/ha) [%],Phytotox (%) on TRZAS (120 g ai/ha) [%],Phytotox (%) on TRZAS (140 g ai/ha) [%],Phytotox (%) on TRZAS (210 g ai/ha) [%],Phytotox (%) on TRZAS (280 g ai/ha) [%]
"CCOC(=O)C1=NN(c2ccc(Cl)cc2Cl)C(C)(C(=O)OCC)C1 (centres unmarked) [(B1.1.1), ethyl 1-(2,4-dichlorophenyl)-5-(ethoxycarbonyl)-5-methyl-2-pyrazoline-3-carboxylate]",0,0,,,
"COc1c(Cl)ccc(Cl)c1C(=O)O [(A1), 3,6-dichloro-2-methoxybenzoic acid]",,,27,25,27
